Measurements taken from US10131652B2, “Pyrimidinyloxy benzene derivatives as herbicides” (E. I. DU PONT DE NEMOURS AND COMPANY, priority 2014, dated 2018).
Like-named read-outs stand apart in the source and are kept apart here.

Tests used:
Experiment in all cases: Test D pre-/postemergence plant response
Assay type in all cases: in vivo
[1] = test system: pigweed (Amaranthus retroflexus); settings: Amaranthus retroflexus, pre-emergence; Preemergence; 62 g ai/ha; scale 0 to 100 (0 no effect, 100 complete control); read-out: Plant response rating, Pigweed
Method in brief: (§1)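 Test chemicals were formulated in a non-phytotoxic solvent mixture containing surfactant and applied either preemergence to seeds in loam–sand soil or postemergence to plants 2 to 18 cm tall (1- to 4-leaf stage). Response was rated visually against controls after 13 to 15 days, from 0 (none) to 100 (complete control).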

[2] = test system: yellow nutsedge (Cyperus esculentus); settings: Cyperus; for pest or weed control at 31 g/ha: 31 g ai/ha; for pest or weed control at 62 g/ha: 62 g ai/ha; for pest or weed control at 125 g/ha: 125 g ai/ha
Method in brief: as §1

[3] = test system: giant foxtail (Setaria faberii); settings: Setaria faberi; for pest or weed control at 16 g/ha: 16 g ai/ha; for pest or weed control at 31 g/ha: 31 g ai/ha; for pest or weed control at 62 g/ha: 62 g ai/ha; for pest or weed control at 125 g/ha: 125 g ai/ha
Method in brief: as §1

[4] = test system: large (Lg) crabgrass (Digitaria sanguinalis); settings: Digitaria sanguinalis; for pest or weed control at 16 g/ha: 16 g ai/ha; for pest or weed control at 31 g/ha: 31 g ai/ha; for pest or weed control at 62 g/ha: 62 g ai/ha; for pest or weed control at 125 g/ha: 125 g ai/ha
Method in brief: as §1

[5] = test system: galium (catchweed bedstraw, Galium aparine); settings: Galium; for pest or weed control at 31 g/ha: 31 g ai/ha; for pest or weed control at 62 g/ha: 62 g ai/ha; for pest or weed control at 125 g/ha: 125 g ai/ha
Method in brief: as §1

soybean (Glycine max) = settings: Glycine max; for plant injury at 31 g/ha: 31 g ai/ha; for plant injury at 62 g/ha: 62 g ai/ha; for plant injury at 125 g/ha: 125 g ai/ha
Method in brief: as §1

[6] = test system: winter wheat (Triticum aestivum); settings: Triticum aestivum; for plant injury at 31 g/ha: 31 g ai/ha; for plant injury at 62 g/ha: 62 g ai/ha; for plant injury at 125 g/ha: 125 g ai/ha
Method in brief: as §1

[7] = test system: morningglory (Ipomoea coccinea); settings: Ipomoea; for pest or weed control at 31 g/ha: 31 g ai/ha; for pest or weed control at 62 g/ha: 62 g ai/ha; for pest or weed control at 125 g/ha: 125 g ai/ha
Method in brief: as §1

[8] = test system: ragweed (common ragweed, Ambrosia elatior); settings: Ambrosia artemisiifolia; for pest or weed control at 31 g/ha: 31 g ai/ha; for pest or weed control at 62 g/ha: 62 g ai/ha; for pest or weed control at 125 g/ha: 125 g ai/ha
Method in brief: as §1

[9] = test system: lambsquarters (Chenopodium album); settings: Chenopodium album; for pest or weed control at 31 g/ha: 31 g ai/ha; for pest or weed control at 62 g/ha: 62 g ai/ha; for pest or weed control at 125 g/ha: 125 g ai/ha
Method in brief: as §1

[10] = post-emergence, Postemergence, scale 0 to 100, 0 no effect, 100 complete control, read-out: Plant response rating, Nutsedge, Yellow
[11] = pre-emergence, Preemergence, scale 0 to 100 (0 no effect, 100 complete control), read-out: Plant response rating, Nutsedge, Yellow
[12] = post-emergence, Postemergence, scale 0 to 100 (0 no effect, 100 complete control), read-out: Foxtail, Giant plant response rating
[13] = post-emergence, Postemergence, scale 0 to 100, 0 no effect, 100 complete control, read-out: Plant response rating, Foxtail, Giant
[14] = pre-emergence, Preemergence, scale 0 to 100 (0 no effect, 100 complete control), read-out: Plant response rating, Foxtail, Giant
[15] = post-emergence, Postemergence, scale 0 to 100 (0 no effect, 100 complete control), read-out: Crabgrass, Large plant response rating
[16] = post-emergence, Postemergence, scale 0 to 100, 0 no effect, 100 complete control, read-out: Plant response rating, Crabgrass, Large
[17] = pre-emergence, Preemergence, scale 0 to 100 (0 no effect, 100 complete control), read-out: Plant response rating, Crabgrass, Large
[18] = post-emergence, Postemergence, scale 0 to 100, 0 no effect, 100 complete control, read-out: Plant response rating, Galium
[19] = pre-emergence, Preemergence, scale 0 to 100 (0 no effect, 100 complete control), read-out: Plant response rating, Galium
[20] = post-emergence, Postemergence, scale 0 to 100, 0 no effect, 100 complete control, read-out: Plant response rating, Soybean
[21] = pre-emergence, Preemergence, scale 0 to 100 (0 no effect, 100 complete control), read-out: Plant response rating, Soybean
[22] = post-emergence, Postemergence, scale 0 to 100, 0 no effect, 100 complete control, read-out: Plant response rating, Wheat
[23] = pre-emergence, Preemergence, scale 0 to 100 (0 no effect, 100 complete control), read-out: Plant response rating, Wheat
[24] = post-emergence, Postemergence, scale 0 to 100, 0 no effect, 100 complete control, read-out: Plant response rating, Morningglory
[25] = pre-emergence, Preemergence, scale 0 to 100 (0 no effect, 100 complete control), read-out: Plant response rating, Morningglory
[26] = post-emergence, Postemergence, scale 0 to 100, 0 no effect, 100 complete control, read-out: Plant response rating, Ragweed
[27] = pre-emergence, Preemergence, scale 0 to 100 (0 no effect, 100 complete control), read-out: Plant response rating, Ragweed
[28] = post-emergence, Postemergence, scale 0 to 100, 0 no effect, 100 complete control, read-out: Plant response rating, Lambsquarters
[29] = pre-emergence, Preemergence, scale 0 to 100 (0 no effect, 100 complete control), read-out: Plant response rating, Lambsquarters

Fc1cccc(Oc2ncc(Cl)cn2)c1-c1cc(C(F)(F)F)on1 [Compound 168, 5-chloro-2-[2-[5-(trifluoromethyl)-3-isoxazolyl]-3-fluorophenoxy]pyrimidine]
pest or weed control at 62 g/ha [1]: 100%
pest or weed control at 31 g/ha ([2]; post-emergence, Postemergence, scale 0 to 100 (0 no effect, 100 complete control), read-out: Nutsedge, Yellow plant response rating): 5%
pest or weed control at 62 g/ha [2, 10]: 10%
pest or weed control at 125 g/ha [2, 10]: 15%
pest or weed control at 125 g/ha ([2]; pre-emergence, Preemergence, read-out: Plant response rating (scale 0 to 100), Nutsedge, Yellow): 45%
pest or weed control at 16 g/ha ([2]; pre-emergence, Preemergence, 16 g ai/ha, scale 0 to 100 (0 no effect, 100 complete control), read-out: Plant response rating, Nutsedge, Yellow): 5%
pest or weed control at 31 g/ha [2, 11]: 5%
pest or weed control at 62 g/ha [2, 11]: 15%
pest or weed control at 16 g/ha [3, 12]: 35%
pest or weed control at 31 g/ha [3, 12]: 35%
pest or weed control at 62 g/ha [3, 13]: 40%
pest or weed control at 125 g/ha [3, 13]: 60%
pest or weed control at 125 g/ha ([3]; pre-emergence, Preemergence, read-out: Plant response rating (scale 0 to 100), Foxtail, Giant): 100%
pest or weed control at 16 g/ha [3, 14]: 100%
pest or weed control at 31 g/ha [3, 14]: 100%
pest or weed control at 62 g/ha [3, 14]: 100%
pest or weed control at 16 g/ha [4, 15]: 5%
pest or weed control at 31 g/ha [4, 15]: 5%
pest or weed control at 62 g/ha [4, 16]: 15%
pest or weed control at 125 g/ha [4, 16]: 40%
pest or weed control at 125 g/ha ([4]; pre-emergence, Preemergence, read-out: Plant response rating (scale 0 to 100), Crabgrass, Large): 100%
pest or weed control at 16 g/ha [4, 17]: 100%
pest or weed control at 31 g/ha [4, 17]: 100%
pest or weed control at 62 g/ha [4, 17]: 100%
pest or weed control at 31 g/ha ([5]; post-emergence, Postemergence, scale 0 to 100 (0 no effect, 100 complete control), read-out: Galium plant response rating): 95%
pest or weed control at 62 g/ha [5, 18]: 95%
pest or weed control at 125 g/ha [5, 18]: 100%
pest or weed control at 125 g/ha ([5]; pre-emergence, Preemergence, read-out: Plant response rating (scale 0 to 100), Galium): 100%
pest or weed control at 16 g/ha ([5]; pre-emergence, Preemergence, 16 g ai/ha, scale 0 to 100 (0 no effect, 100 complete control), read-out: Plant response rating, Galium): 100%
pest or weed control at 31 g/ha [5, 19]: 100%
pest or weed control at 62 g/ha [5, 19]: 100%
plant injury at 31 g/ha (soybean (Glycine max); post-emergence, Postemergence, scale 0 to 100 (0 no effect, 100 complete control), read-out: Soybean plant response rating): 75%
plant injury at 62 g/ha (soybean (Glycine max); [20]): 40%
plant injury at 125 g/ha (soybean (Glycine max); [20]): 90%
plant injury at 125 g/ha (soybean (Glycine max); pre-emergence, Preemergence, read-out: Plant response rating (scale 0 to 100), Soybean): 85%
plant injury at 16 g/ha (soybean (Glycine max); pre-emergence, Preemergence, 16 g ai/ha, scale 0 to 100 (0 no effect, 100 complete control), read-out: Plant response rating, Soybean): 5%
plant injury at 31 g/ha (soybean (Glycine max); [21]): 30%
plant injury at 62 g/ha (soybean (Glycine max); [21]): 55%
plant injury at 31 g/ha ([6]; post-emergence, Postemergence, scale 0 to 100 (0 no effect, 100 complete control), read-out: Wheat plant response rating): 10%
plant injury at 62 g/ha [6, 22]: 30%
plant injury at 125 g/ha [6, 22]: 35%
plant injury at 125 g/ha ([6]; pre-emergence, Preemergence, read-out: Plant response rating (scale 0 to 100), Wheat): 85%
plant injury at 16 g/ha ([6]; pre-emergence, Preemergence, 16 g ai/ha, scale 0 to 100 (0 no effect, 100 complete control), read-out: Plant response rating, Wheat): 0%
plant injury at 31 g/ha [6, 23]: 5%
plant injury at 62 g/ha [6, 23]: 45%
pest or weed control at 31 g/ha ([7]; post-emergence, Postemergence, scale 0 to 100 (0 no effect, 100 complete control), read-out: Morningglory plant response rating): 85%
pest or weed control at 62 g/ha [7, 24]: 85%
pest or weed control at 125 g/ha [7, 24]: 85%
pest or weed control at 125 g/ha ([7]; pre-emergence, Preemergence, read-out: Plant response rating (scale 0 to 100), Morningglory): 100%
pest or weed control at 16 g/ha ([7]; pre-emergence, Preemergence, 16 g ai/ha, scale 0 to 100 (0 no effect, 100 complete control), read-out: Plant response rating, Morningglory): 5%
pest or weed control at 31 g/ha [7, 25]: 70%
pest or weed control at 62 g/ha [7, 25]: 80%
pest or weed control at 31 g/ha ([8]; post-emergence, Postemergence, scale 0 to 100 (0 no effect, 100 complete control), read-out: Ragweed plant response rating): 50%
pest or weed control at 62 g/ha [8, 26]: 55%
pest or weed control at 125 g/ha [8, 26]: 55%
pest or weed control at 125 g/ha ([8]; pre-emergence, Preemergence, read-out: Plant response rating (scale 0 to 100), Ragweed): 100%
pest or weed control at 16 g/ha ([8]; pre-emergence, Preemergence, 16 g ai/ha, scale 0 to 100 (0 no effect, 100 complete control), read-out: Plant response rating, Ragweed): 35%
pest or weed control at 31 g/ha [8, 27]: 45%
pest or weed control at 62 g/ha [8, 27]: 100%
pest or weed control at 31 g/ha ([9]; post-emergence, Postemergence, scale 0 to 100 (0 no effect, 100 complete control), read-out: Lambsquarters plant response rating): 85%
pest or weed control at 62 g/ha [9, 28]: 85%
pest or weed control at 125 g/ha [9, 28]: 90%
pest or weed control at 125 g/ha ([9]; pre-emergence, Preemergence, read-out: Plant response rating (scale 0 to 100), Lambsquarters): 98%
pest or weed control at 16 g/ha ([9]; pre-emergence, Preemergence, 16 g ai/ha, scale 0 to 100 (0 no effect, 100 complete control), read-out: Plant response rating, Lambsquarters): 90%
pest or weed control at 31 g/ha [9, 29]: 100%
pest or weed control at 62 g/ha [9, 29]: 100%
